Assay results from patent US8361998B2, “Compounds and their use as IKACh blockers” (AstraZeneca AB, priority 2010, dated 2013).
Where two headings read alike, the source gives them in different places.

Target: T1, human cardiac ion channel proteins hKir3.1/Kir3.4 (Homo sapiens, UniProt P48544+P48549)
T1 construct: expressed in transfected cells
T1 sequence (P48549 1-501): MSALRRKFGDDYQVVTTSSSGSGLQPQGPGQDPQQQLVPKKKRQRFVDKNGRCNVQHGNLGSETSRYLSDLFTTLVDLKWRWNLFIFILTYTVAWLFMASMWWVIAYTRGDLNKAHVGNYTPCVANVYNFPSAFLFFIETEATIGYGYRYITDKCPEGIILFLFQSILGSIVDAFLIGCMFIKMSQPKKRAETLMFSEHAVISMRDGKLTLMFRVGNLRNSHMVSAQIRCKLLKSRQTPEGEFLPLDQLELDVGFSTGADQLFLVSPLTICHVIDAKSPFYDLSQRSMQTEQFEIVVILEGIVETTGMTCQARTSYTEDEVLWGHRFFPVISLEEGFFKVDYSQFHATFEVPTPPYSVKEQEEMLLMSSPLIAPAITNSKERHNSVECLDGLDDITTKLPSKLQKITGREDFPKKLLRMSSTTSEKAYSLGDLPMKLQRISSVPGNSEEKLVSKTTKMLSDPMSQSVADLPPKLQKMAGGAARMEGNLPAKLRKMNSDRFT
T1 sequence (P48544 1-419): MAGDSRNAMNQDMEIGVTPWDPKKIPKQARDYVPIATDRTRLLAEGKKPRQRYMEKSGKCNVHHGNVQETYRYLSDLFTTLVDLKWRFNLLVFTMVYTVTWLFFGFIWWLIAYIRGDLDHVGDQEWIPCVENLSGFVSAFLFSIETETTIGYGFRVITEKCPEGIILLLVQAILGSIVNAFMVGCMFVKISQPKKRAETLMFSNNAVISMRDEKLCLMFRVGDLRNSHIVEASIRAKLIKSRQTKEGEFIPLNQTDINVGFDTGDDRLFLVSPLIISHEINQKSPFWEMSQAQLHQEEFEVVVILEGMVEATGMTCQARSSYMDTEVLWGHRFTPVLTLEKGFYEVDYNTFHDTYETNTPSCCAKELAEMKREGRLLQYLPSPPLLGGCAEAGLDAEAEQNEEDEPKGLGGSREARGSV
Experiment: Atomic Absorption Screening (AAS) Rb efflux assay of hKir3.1/Kir3.4 block, carbachol/high K+ stimulated, 10-pt or 7-pt CR
Assay type: cell-based
Outline: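 CHO-K1 cells stably co-expressing human Kir3.1/Kir3.4 were Rb-loaded for 3 h at 37° C, preincubated with compound 5 min at RT, then stimulated 10 min with 10 μM carbachol plus 20 mM KCl (final). Supernatant Rb was measured by atomic absorption. Compounds ran at 0.003–67 μmol/L (10-pt) or 0.037–27 μmol/L (7-pt), threefold dilutions; IC50s are means of >4 or >3 replicates respectively.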

[1] = 10-pt CR (0.003 to 67 μmol/L), AAS Rb efflux, CHO-K1 cells expressing hKir3.1/Kir3.4, mean of >4 replicates, read-out: IKACh IC50 10-pt CR, AAS
[2] = 7-pt CR (0.037 to 27 μmol/L), AAS Rb efflux, CHO-K1 cells expressing hKir3.1/Kir3.4, mean of >3 replicates, read-out: IKACh IC50 7-pt CR, AAS
[3] = printed as IC50 >67 μM in the 10-pt CR assay or IC50 >27 μM in the 7-pt CR assay, assay format per compound not stated, read-out: IC50

| SMILES | IC50 [1] | also measured |
| --- | --- | --- |
| CCC[C@@H](CN1CC(O)C1)N(C)C(=O)c1ccc(F)c(C(F)(F)F)c1 [Example 8.5, (S)-4-Fluoro-N-(1-(3-hydroxyazetidin-1-yl)pentan-2-yl)-N-methyl-3-(trifluoromethyl)benzamide] | 0.58 µM | – |
| CC(C)[C@@H](CN1CCCCC1)N(C)C(=O)c1ccc(F)c(Cl)c1 [Example 16.33, 3-Chloro-4-fluoro-N-methyl-N-[(1S)-2-methyl-1-(piperidin-1-ylmethyl)propyl]-benzamide] | – | IC50 [2]: 6.7 µM |
| CC(C)[C@@H](CN1C[C@@H](O)[C@H](O)C1)N(C)C(=O)c1ccc(Cl)cc1 [4-Chloro-N-((S)-1-((3R,4R)-3,4-dihydroxypyrrolidin-1-yl)-3-methylbutan-2-yl)-N-methylbenzamide] | – | IC50 [3]: > 27 µM |
| Cc1cc(C(=O)N(C)[C@H](CN2C[C@@H](O)[C@H](O)C2)C(C)C)ccc1Cl [Example 8.16, 4-Chloro-N-((S)-1-((3R,4R)-3,4-dihydroxypyrrolidin-1-yl)-3-methylbutan-2-yl)-N,3-dimethylbenzamide] | 16 µM | – |
| Cc1cc(C(=O)N(C)[C@](C)(CN2CC(O)C2)C(C)C)ccc1F [Example 22, (S)-4-Fluoro-N-(1-(3-hydroxyazetidin-1-yl)-2,3-dimethylbutan-2-yl)-N,3-dimethylbenzamide] | 19 µM | – |
| CC(C)[C@@H](CN1CCC(F)(F)C1)N(C)C(=O)c1ccc(Br)cc1 [(S)-4-Bromo-N-(1-(3,3-difluoropyrrolidin-1-yl)-3-methylbutan-2-yl)-N-methylbenzamide] | – | IC50 [3]: > 27 µM |
| COc1ccc(C(=O)N(C)[C@H](CN2CCC2)C(C)C)cc1F [(S)-N-(1-(Azetidin-1-yl)-3-methylbutan-2-yl)-3-fluoro-4-methoxy-N-methylbenzamide] | – | IC50 [3]: > 27 µM |
| CC(C)[C@@H](CN1CC[C@H](O)C1)N(C)C(=O)c1cccc(Cl)c1F [Example 16.39, 3-Chloro-2-fluoro-N-[(1S)-1-{[(3S)-3-hydroxypyrrolidin-1-yl]methyl}-2-methylpropyl]-N-methylbenzamide] | – | IC50 [2]: 3.9 µM |
| CC(C)[C@@H](CN1CCCC(F)(F)C1)N(C)C(=O)c1ccc(F)c(F)c1 [(S)-N-(1-(3,3-Difluoropiperidin-1-yl)-3-methylbutan-2-yl)-3,4-difluoro-N-methylbenzamide] | – | IC50 [3]: > 27 µM |
| CC(C)[C@@H](CN1CCCCC1)N(C)C(=O)c1cccc(Br)c1 [Example 16.35, (S)-3-Bromo-N-methyl-N-(3-methyl-1-(piperidin-1-yl)butan-2-yl)benzamide] | – | IC50 [2]: 12 µM |
| CN(C(=O)c1ccc(Cl)c(Cl)c1)[C@H](CN1CCCC1)C(C)(C)C [Example 2.1, (S)-3,4-Dichloro-N-(3,3-dimethyl-1-(pyrrolidin-1-yl)butan-2-yl)-N-methylbenzamide] | 11 µM | – |
| CC(C)[C@@H](CN1CC(C)(O)C1)N(C)C(=O)c1ccccc1 [(S)-N-(1-(3-Hydroxy-3-methylazetidin-1-yl)-3-methylbutan-2-yl)-N-methylbenzamide] | – | IC50 [3]: > 27 µM |
| CC(C)[C@@H](CN1CCC1)N(C)C(=O)c1ccccc1 [Example 1.14, (S)-N-(1-(Azetidin-1-yl)-3-methylbutan-2-yl)-N-methylbenzamide] | 6.6 µM | – |
| CN(C(=O)c1ccc(Cl)cc1)C(CN1CC(O)C1)C1CCCC1 (single isomer, unassigned) [32.3, isomer 2] | 0.3 µM | – |
| CC(C)[C@@H](CN1CCCC1)N(C)C(=O)c1ccc(F)cc1C(F)(F)F [Example 16.23, (S)-4-Fluoro-N-methyl-N-(3-methyl-1-(pyrrolidin-1-yl)butan-2-yl)-2-(trifluoromethyl)benzamide] | – | IC50 [2]: 6.7 µM |
| CC(C)[C@@H](CN1CCCC1)N(C)C(=O)c1cccc(Cl)c1 [Example 16.48, (S)-3-Chloro-N-methyl-N-(3-methyl-1-(pyrrolidin-1-yl)butan-2-yl)benzamide] | – | IC50 [2]: 4.2 µM |
| CC(C)[C@@H](CN1CCCC1)N(C)C(=O)c1ccccc1 [N-Methyl-N-[(1S)-2-methyl-1-(pyrrolidin-1-ylmethyl)propyl]benzamide] | – | IC50 [3]: > 27 µM |
| CC[C@H](C)[C@@H](CN1CCCC1)N(C)C(=O)c1ccc(Br)cc1 [Example 2.4, 4-Bromo-N-methyl-N-((2S,3S)-3-methyl-1-(pyrrolidin-1-yl)pentan-2-yl)benzamide] | 1.8 µM | – |
| CN(C(=O)c1ccc(F)c(F)c1)[C@H](CN1CCC1)C1CC1 [Example 9.11, (S)-N-(2-(Azetidin-1-yl)-1-cyclopropylethyl)-3,4-difluoro-N-methylbenzamide] | 12 µM | – |
| CCC[C@@H](CN1CC(O)C1)N(C)C(=O)c1cccc(C)c1 [Example 8.10, (S)-N-(1-(3-Hydroxyazetidin-1-yl)pentan-2-yl)-N,3-dimethyl-benzamide] | 4.3 µM | – |
| CCC[C@@H](CN1CC(O)C1)N(C)C(=O)c1cccc(C(F)(F)F)c1 [Example 8.8, (S)-N-(1-(3-Hydroxyazetidin-1-yl)pentan-2-yl)-N-methyl-3-(tri-fluoromethyl)benzamide] | 2.4 µM | – |
| C[C@@H](CN1CCCC1)N(C)C(=O)c1ccc(Br)cc1 [4-Bromo-N-methyl-N-[(1S)-1-methyl-2-pyrrolidin-1-ylethyl]benzamide] | – | IC50 [3]: > 27 µM |
| CC(C)[C@@H](CN1CC(F)(CO)C1)N(C)C(=O)c1ccc(F)c(F)c1 [(S)-3,4-Difluoro-N-(1-(3-fluoro-3-(hydroxymethyl)azetidin-1-yl)-3-methylbutan-2-yl)-N-methylbenzamide] | – | IC50 [3]: > 27 µM |
| CC(C)[C@@H](CN1CCCC1)N(C)C(=O)c1ccc(Br)c(F)c1 [Example 16.52, (S)-4-Bromo-3-fluoro-N-methyl-N-(3-methyl-1-(pyrrolidin-1-yl)butan-2-yl)benzamide] | – | IC50 [2]: 3.2 µM |
| CN(C(=O)c1ccc(F)c(F)c1)[C@H](CN1CC(O)(C2CC2)C1)C1CC1 [Example 9.3, (S)-N-(1-Cyclopropyl-2-(3-cyclopropyl-3-hydroxyazetidin-1-yl)ethyl)-3,4-difluoro-N-methylbenzamide] | 3.1 µM | – |
| CC[C@H](C)[C@@H](CN1CCCC1)N(C)C(=O)c1ccc(Cl)cc1 [Example 2.3, 4-Chloro-N-methyl-N-((2S,3S)-3-methyl-1-(pyrrolidin-1-yl)pentan-2-yl)benzamide] | 1.6 µM | – |
| CC(C)[C@@H](CN1CCCCC1)N(C)C(=O)c1cccc(C#N)c1 [3-Cyano-N-methyl-N-[(1S)-2-methyl-1-(piperidin-1-ylmethyl)propyl]benzamide] | – | IC50 [3]: > 27 µM |

Continued, in another order:

| IC50 [1] | SMILES | also measured |
| --- | --- | --- |
| 1.6 µM | CC[C@H](C)[C@@H](CN1CC(O)C1)N(C)C(=O)c1ccc(OC)cc1 [Example 29.6, N-((2S,3S)-1-(3-Hydroxyazetidin-1-yl)-3-methylpentan-2-yl)-4-methoxy-N-methylbenzamide] | – |
| 15 µM | CN(C(=O)c1ccc(F)cc1F)[C@@H](CN1CC(O)C1)C1CCC1 [Example 35.10, N-[(1R)-1-Cyclobutyl-2-(3-hydroxyazetidin-1-yl)ethyl]-2,4-difluoro-N-methylbenzamide] | – |
| 6.1 µM | Cc1cc(C(=O)N(C)[C@@H](C)CN2CC(O)C2)ccc1Cl [Example 40.4, (S)-4-Chloro-N-(1-(3-hydroxyazetidin-1-yl)propan-2-yl)-N,3-dimethylbenzamide] | – |
| 11 µM | CCC[C@@H](CN1CC(O)C1)N(C(=O)c1ccc(F)c(F)c1)C(C)C [Example 34.2, 3,4-Difluoro-N-[(2S)-1-(3-hydroxyazetidin-1-yl)pentan-2-yl]-N-(propan-2-yl)benzamide] | – |
| 8.7 µM | CN(C(=O)c1ccc(OC(F)F)cc1)[C@@H](CN1CC(O)C1)C1CCC1 [Example 35.3, N-[(1R)-1-Cyclobutyl-2-(3-hydroxyazetidin-1-yl)ethyl]-4-(difluoromethoxy)-N-methylbenzamide] | – |
| 4.6 µM | CN(C(=O)c1ccc(F)c(C#N)c1)[C@@H](CN1CC(O)C1)C1CCC1 [Example 35.9, 3-Cyano-N-[(1R)-1-cyclobutyl-2-(3-hydroxyazetidin-1-yl)ethyl]-4-fluoro-N-methylbenzamide] | – |
| 16 µM | COc1ccc(C(=O)N(C)[C@@H](CN2CC(O)C2)C2CCC2)c(F)c1 [Example 35.12, N-[(1R)-1-Cyclobutyl-2-(3-hydroxyazetidin-1-yl)ethyl]-2-fluoro-4-methoxy-N-methylbenzamide] | – |
